Measured values: patent US8815881B2 (Hoffmann-La Roche Inc., priority 2010, dated 2014)
pIC50: −log10 of the molar value.

These molecules were tested against BACE2 enzyme ectodomain (Homo sapiens (Human), UniProt Q9Y5Z0) (assay: Fluorescent-peptide cleavage assay for BACE2 inhibition). Conditions: assay b): fluorescent-peptide cleavage, pH 4.5 (superscript b).
Format: biochemical
Method: b) Fluorescent-Peptide Cleavage Assay for BACE2 Inhibition
BACE2 enzyme ectodomain (derived from plasmid “pET17b-T7-hu proBACE2”) was prepared as described in Ostermann et al., “Crystal Structure of Human BACE2 in Complex with a Hydroxyethylamine Transition-state Inhibitor”, Journal of Molecular Biology 2006, 355, 249-261. The pro-enzyme was stored at 4° C. at a concentration of 70 μg/ml.
A fluorescent peptide with the amino acid sequence WS EVNLD AEFRC-MR121 was synthesised and a stock solution of 1.5 mM in DMSO prepared and stored at −20° C. MR121 is a fluorophore with an excitation wavelength of 630 nm and emission wavelength of 695 nm. The MR121 fluorescence is quenched by the N-terminal tryptophan until the peptide is cleaved by BACE2.
Assays were all made in a Corning 384-well black polystyrene non-binding surface microtitre plate with clear flat bottom and using a Plate:Vision (Perkin Elmer) fluorescence reader. To perform the assay an 80 nM solution of BACE2 was prepared in assay buffer (assay buffer is 100 mM Na-acetate; 20 mM EDTA; 0.05% BSA; pH 4.5) and incubated at room temperature for 1 hour to activate the enzyme. 39 μl of the activated BACE2 was placed in each assay well, followed by 1 μl compound to be tested at an appropriate concentration in 100% DMSO. The plate was then mixed and incubated for 10 minutes at room temperature. To start the assay, 10 μl of a 1.5 μM solution fluorescent peptide in assay buffer was added and the fluorescence intensity in the assay mixture measured at 695 nm with an excitation wavelength of 630 nm for 30 minutes.
The assay readout is the rate of change of fluorescence intensity giving a relative measure of BACE2 activity. Small values correspond to high inhibition and larger values to low inhibition. To determine IC50 values (i.e. the concentration inhibiting the enzyme activity by 50%) of the compound for BACE2, typically, 15 assays were made with a range of concentrations chosen empirically to give low, high and intermediate inhibition of the protease. IC50 values were determined using these assay values generated for a range of inhibitor concentrations and the curve fitting software XLfit (IDBS) using the Sigmoidal Dose-Response Model.

Sequence of BACE2 enzyme ectodomain (Q9Y5Z0 63-473): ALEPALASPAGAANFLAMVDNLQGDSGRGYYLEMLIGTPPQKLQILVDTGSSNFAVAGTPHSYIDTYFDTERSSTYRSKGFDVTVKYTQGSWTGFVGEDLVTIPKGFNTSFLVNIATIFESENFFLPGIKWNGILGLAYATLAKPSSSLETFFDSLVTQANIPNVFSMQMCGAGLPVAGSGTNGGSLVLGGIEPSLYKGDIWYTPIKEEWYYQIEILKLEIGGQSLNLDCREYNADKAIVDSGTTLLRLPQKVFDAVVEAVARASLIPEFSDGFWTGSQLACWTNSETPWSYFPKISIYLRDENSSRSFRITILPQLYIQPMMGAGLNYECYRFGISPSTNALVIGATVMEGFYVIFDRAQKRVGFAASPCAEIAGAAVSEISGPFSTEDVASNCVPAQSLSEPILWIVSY

Q: `CN1C(=O)C(C)(C)[C@@](C)(c2cc(Nc3cncc(C(F)(F)F)c3)ccc2F)N=C1N` [Example 175, (S)-2-Amino-6-(2-fluoro-5-(5-(trifluoromethyl)pyridin-3-ylamino)phenyl)-3,5,5,6-tetramethyl-5,6-dihydropyrimidin-4(3H)-one] was tested. Which pIC50 did it give?
A: 6.60

Q: `CN1C(=O)C(C)(C)[C@@](C)(c2cc(Nc3ccc(OCC(F)(F)F)nc3)ccc2F)N=C1N` [Example 172, (S)-2-Amino-6-(2-fluoro-5-(6-(2,2,2-trifluoroethoxy)pyridin-3-ylamino)phenyl)-3,5,5,6-tetramethyl-5,6-dihydropyrimidin-4(3H)-one] was tested. Which pIC50 did it give?
A: 6.96

Q: With `CN1C(=O)C(C)(C)[C@@](C)(c2cc(Nc3ccc(C#N)cc3)ccc2F)N=C1N` [Example 153, (S)-4-(3-(2-Amino-1,4,5,5-tetramethyl-6-oxo-1,4,5,6-tetrahydropyrimidin-4-yl)-4-fluorophenylamino)benzonitrile] as the molecule, how does the pIC50 read?
A: 6.89

Q: How did the pIC50 turn out when `COc1ccc(Nc2ccc(F)c([C@@]3(C)N=C(N)N(C)C(=O)C3(C)C)c2)cn1` [Example 170, (S)-2-Amino-6-(2-fluoro-5-(6-methoxypyridin-3-ylamino)phenyl)-3,5,5,6-tetramethyl-5,6-dihydropyrimidin-4(3H)-one] was run?
A: 6.85

Q: `CC(C)C(=O)Nc1ccc(F)c([C@@]2(C)N=C(N)N(C)C(=O)C2(C)C)c1` [Example 151, N-[3-((S)-2-Amino-1,4,5,5-tetramethyl-6-oxo-1,4,5,6-tetrahydro-pyrimidin-4-yl)-4-fluoro-phenyl]-isobutyramide] was tested. Which pIC50 did it give?
A: 7.00

Q: With `CN1C(=O)C(C)(C)[C@@](C)(c2cc(NC3CCCC3C#N)ccc2F)N=C1N` (stereo partly drawn) [Example 162, 2-[3-((S)-2-Amino-1,4,5,5-tetramethyl-6-oxo-1,4,5,6-tetrahydro-pyrimidin-4-yl)-4-fluoro-phenylamino]-cyclopentanecarbonitrile] as the molecule, how does the pIC50 read?
A: 6.92

Q: How did the pIC50 turn out when `COc1ccc(Cl)cc1Nc1ccc(F)c([C@@]2(C)N=C(N)N(C)C(=O)C2(C)C)c1` [Example 150, (S)-2-Amino-6-(5-(5-chloro-2-methoxyphenylamino)-2-fluorophenyl)-3,5,5,6-tetramethyl-5,6-dihydropyrimidin-4(3H)-one] was run?
A: 7.68

Q: With `CN1C(=O)C(C)(C)[C@@](C)(c2cc(Nc3ccc(C#N)cc3C(F)(F)F)ccc2F)N=C1N` [Example 163, (S)-4-(3-(2-Amino-1,4,5,5-tetramethyl-6-oxo-1,4,5,6-tetrahydropyrimidin-4-yl)-4-fluorophenylamino)-3-(trifluoromethyl)benzonitrile] as the molecule, how does the pIC50 read?
A: 7.21

Q: How did the pIC50 turn out when `CN1C(=O)C(C)(C)[C@@](C)(c2cc(Nc3cc(C#N)ccc3F)ccc2F)N=C1N` [Example 165, (S)-3-(3-(2-Amino-1,4,5,5-tetramethyl-6-oxo-1,4,5,6-tetrahydropyrimidin-4-yl)-4-fluorophenylamino)-4-fluorobenzonitrile] was run?
A: 7.41

Q: `CN1C(=O)C(C)(C)[C@@](C)(c2cc(Nc3cncc(F)c3)ccc2F)N=C1N` [Example 174, (S)-2-Amino-6-(2-fluoro-5-(5-fluoropyridin-3-ylamino)phenyl)-3,5,5,6-tetramethyl-5,6-dihydropyrimidin-4(3H)-one] was tested. Which pIC50 did it give?
A: 6.82

Q: With `Cc1ccc(Nc2ccc(F)c([C@@]3(C)N=C(N)N(C)C(=O)C3(C)C)c2)cc1C#N` [Example 169, 5-[3-((S)-2-Amino-1,4,5,5-tetramethyl-6-oxo-1,4,5,6-tetrahydro-pyrimidin-4-yl)-4-fluoro-phenylamino]-2-methyl-benzonitrile] as the molecule, how does the pIC50 read?
A: 6.74

Q: How did the pIC50 turn out when `CN1C(=O)C(C)(C)[C@@](C)(c2cc(Nc3ccc(Cl)nc3)ccc2F)N=C1N` [Example 176, (S)-2-Amino-6-(5-(6-chloropyridin-3-ylamino)-2-fluorophenyl)-3,5,5,6-tetramethyl-5,6-dihydropyrimidin-4(3H)-one] was run?
A: 6.89

Q: `Cc1ccc(Nc2ccc(F)c([C@@]3(C)N=C(N)N(C)C(=O)C3(C)C)c2)cn1` [Example 171, (S)-2-Amino-6-(2-fluoro-5-(6-methylpyridin-3-ylamino)phenyl)-3,5,5,6-tetramethyl-5,6-dihydropyrimidin-4(3H)-one] was tested. Which pIC50 did it give?
A: 5.74
